# Key:
# Assay type in all cases: in vivo, rat
# [1] = test system: paw withdrawal threshold; assay: von Frey testing for tactile hypersensitivity after SNL; settings: for withdrawal threshold of the ipsilateral hindpaw: TUDCA 300 mg/kg i.p.
# From the text: (§1) Rats were divided into two experimental groups: a group in which the L5 spinal nerve was ligated and cut, and a sham-operated control group. The left L5 spinal nerve was isolated, tightly ligated and cut distal to the ligation under isoflurane anesthesia (1.5%). The surgical procedure for the sham-operated group was identical to that of the SNL group, except that the L5 spinal nerve was not ligated or cut. General behavior of the rats was monitored before and after the surgery. Any rats showing difficulty elevating a hindpaw were discarded from the study.
# (§2) Rats were treated with 5,7-dihydroxytryptamine (5,7-DHT: 100 μg/10 μl, intracisternal injection) to induce loss of RVM serotonergic neurons. Rats were randomly assigned to one of four groups for these experiments: (1) L5 SNL with 5,7-DHT; (2) L5 SNL with vehicle injection; (3) sham with 5,7-DHT; and (4) sham with vehicle. Injections were given ten days after surgery; animals receiving vehicle injections received sterile saline (10 μl, intracisternal injection). To prevent damage to noradrenergic (NE) neurons, the inventors pre-treated animals 30 minutes before 5,7-DHT and saline administration with desipramine (20 mg/kg i.p.), an inhibitor of neuronal NE reuptake. To test the effects of inhibiting apoptosis on SNL, the inventors administered a systemically active inhibitor of apoptosis, tauroursodeoxycholic acid (TUDCA) (300 mg/kg i.p. or saline prior to and after surgery. For each group, injections were given every-other day, starting 3 days prior to surgery and continuing until sacrifice. To confirm the efficacy of TUDCA, the inventors tested its effects on dexamethasone-induced apoptosis in thymus. Two TUDCA injections (300 mg/kg i.p.) were given: one to two days prior to dexamethasone (1 mg/kg i.p.) administration and one the day of dexamethasone administration. Control animals were given saline injections instead of TUDCA solution. Rats were killed one day after dexamethasone administration.
# Mechanical sensitivity was determined by measuring the paw withdrawal threshold in response to the application of von Frey filaments, using the up-down method of Chaplan. In brief, rats were placed on a wire mesh surface, covered by an inverted plastic cage and allowed to habituate for 15 min. Filaments were then applied to the plantar surface of the hindpaw. If application of the filament evoked no response, the next-larger filament was applied; if application elicited withdrawal, the next-smaller filament was applied. This sequence was repeated until the largest filament was used or until four filaments were applied after the first withdrawal was noted. Withdrawal thresholds were measured prior to surgery and at 2-3 day intervals after surgery. In all cases, thresholds were measured bilaterally.
# [2] = test system: thymus; assay: dexamethasone-induced apoptosis in thymus (caspase-3 labeling); settings: TUDCA 300 mg/kg i.p., two injections; dexamethasone 1 mg/kg i.p.
# Experimental: as §2, with “Rats were killed one day after dexamethasone administration.” left out
# [3] = test system: RVM neurons; assay: number of RVM neurons after spinal nerve ligation (SNL), stereological cell counting
# From the text: as §1, §2
# (§3) The RVM and spinal cord were sectioned using a freezing microtome (Leica, SM2400) at a nominal thickness of 50 μm. […]
# [4] = test system: RVM 5-HT neurons; assay: number of RVM 5-HT (TPH-ir) neurons after SNL, stereological cell counting
# From the text: as §1, §2, §3
# [5] = test system: RVM glia; assay: number of RVM glia after SNL (Nissl-stained tissue); settings: SNL rats
# From the text: as §1, §2
# Conventional microscopy was used to collect images of the RVM for cell counting. An Olympus BX50 fluorescence microscope (Tokyo, Japan) equipped with filter sets designed to allow selective visualization of Cy2 and Cy3 was used. Microscopic images were collected with a Scion 1346 digital camera. Confocal images were collected using an Olympus FluoView FV1000 microscope (Tokyo, Japan). ImageJ 1.29 (developed at NIH and available at http://rsb.info.nih.gov/ij/) or Photoshop were used to adjust contrast and brightness in images. […]
# stereological methods were used for quantification as described previously. […] The sampling interval thereafter was determined based on the number of sections within the RVM and was usually every sixth section. […]
Structure (SMILES),"mechanical hypersensitivity after SNL ([1]; 5,7-DHT 100 μg/10 μl intracisternal injection ten days after surgery)",caspase-3 labeling in thymus compared to dexamethasone alone [2],"number of RVM neurons ipsilateral to the lesion ([3]; SNL rats, TUDCA 300 mg/kg i.p. every-other day, ipsilateral, vehicle 12,540±930)","number of RVM neurons contralateral to SNL ([3]; SNL rats, TUDCA 300 mg/kg i.p., contralateral, saline 16,949±1,074)","number of RVM neurons ipsilateral, higher than in vehicle-treated SNL rats ([3]; ipsilateral, p<0.05, n=8) [%]","number of RVM 5-HT neurons contralateral to SNL ([4]; SNL rats, TUDCA 300 mg/kg i.p., contralateral)","number of RVM 5-HT neurons ipsilateral to SNL ([4]; SNL rats, TUDCA 300 mg/kg i.p., ipsilateral, vehicle 1,043±118)","number of RVM 5-HT neurons ipsilateral, higher than in vehicle-treated rats ([4]; ipsilateral, p<0.05, n=8) [%]","withdrawal threshold of the ipsilateral hindpaw ([1]; Day 4 post-SNL, vehicle 1.1±0.3 g) [g]","withdrawal threshold of the ipsilateral hindpaw ([1]; Day 6 post-SNL, vehicle 1.3±0.2 g) [g]","withdrawal threshold of the ipsilateral hindpaw ([1]; Day 8 post-SNL, vehicle 1.2±0.3 g) [g]","withdrawal threshold of the ipsilateral hindpaw ([1]; Day 10 post-SNL, vehicle 1.2±0.2 g) [g]",SNL-induced mechanical hypersensitivity ([1]; TUDCA 300 mg/kg i.p. every-other day),"tactile hypersensitivity one-to-three days after SNL ([1]; one-to-three days after SNL, TUDCA)","number of RVM glia contralateral after SNL ([5]; TUDCA, contralateral, vehicle 80,086±2,899)","number of RVM glia ipsilateral after SNL ([5]; TUDCA, ipsilateral, vehicle 85,541±2,972)","RVM glia contralateral, fewer than vehicle ([5]; contralateral, p<0.05) [%]","RVM glia ipsilateral, fewer than vehicle ([5]; ipsilateral, p<0.05, n=7 TUDCA, n=6 vehicle) [%]"
"NCCc1c[nH]c2c(O)cc(O)cc12 [5,7-DHT, 5,7-dihydroxytryptamine]",partially reversed,,,,,,,,,,,,,,,,,
"C[C@H](CCC(=O)NCCS(=O)(=O)O)[C@H]1CC[C@H]2[C@@H]3[C@@H](O)C[C@@H]4C[C@H](O)CC[C@]4(C)[C@H]3CC[C@]12C [TUDCA, tauroursodeoxycholic acid]",,marked decrease,"17,976±1,202","16,675±828",43,"1,251±99","1,353±96",30,3.5 ± 0.5,4.0 ± 0.5,4.6 ± 1.1,5.2 ± 1.3,partially reversed,does not reduce hypersensitivity,"60,437±4,315","62,306±3,736",25,27
